In the NIST ThermoML archive (doi:10.1016/j.fluid.2015.04.017):

Test: xn = mol fraction of the nth substance listed
Conditions: 101 kPa, Liquid; for viscosity: Concentric cylinders viscometry; for mass density: Vibrating tube method

CCOC(=O)C(C)O (stereo not drawn) [DL-ethyl lactate] + CN1CCCC1=O
Conditions | mass density [kg/m3] | viscosity [mPa·s]
288.15 K, x1 = 0.0999 | 1040.68 | 2.34
288.15 K, x1 = 0.2 | 1041.7 | 2.601
288.15 K, x1 = 0.3001 | 1042.78 | 2.89
288.15 K, x1 = 0.4 | 1043.43 | 3.122
288.15 K, x1 = 0.4997 | 1043.89 | 3.352
288.15 K, x1 = 0.6 | 1043.93 | 3.508
288.15 K, x1 = 0.7002 | 1043.56 | 3.581
288.15 K, x1 = 0.7999 | 1042.82 | 3.567
288.15 K, x1 = 0.8997 | 1041.57 | 3.456
288.15 K, x1 = 1 | 1039.28 | 3.207
293.15 K, x1 = 0.0999 | 1036.17 | 2.125
293.15 K, x1 = 0.2 | 1037.14 | 2.347
293.15 K, x1 = 0.3001 | 1038.17 | 2.585
293.15 K, x1 = 0.4 | 1038.75 | 2.772
293.15 K, x1 = 0.4997 | 1039.12 | 2.952
293.15 K, x1 = 0.6 | 1039.06 | 3.066
293.15 K, x1 = 0.7002 | 1038.56 | 3.11
293.15 K, x1 = 0.7999 | 1037.68 | 3.08
293.15 K, x1 = 0.8997 | 1036.28 | 2.975
293.15 K, x1 = 1 | 1033.84 | 2.75
298.15 K, x1 = 0.0999 | 1031.66 | 1.941
298.15 K, x1 = 0.2 | 1032.59 | 2.132
298.15 K, x1 = 0.3001 | 1033.56 | 2.331
298.15 K, x1 = 0.4 | 1034.06 | 2.482
298.15 K, x1 = 0.4997 | 1034.35 | 2.624
298.15 K, x1 = 0.6 | 1034.17 | 2.706
298.15 K, x1 = 0.7002 | 1033.55 | 2.726
298.15 K, x1 = 0.7999 | 1032.53 | 2.692
298.15 K, x1 = 0.8997 | 1030.98 | 2.591
298.15 K, x1 = 1 | 1028.39 | 2.39
303.15 K, x1 = 0.0999 | 1027.16 | 1.785
303.15 K, x1 = 0.2 | 1028.05 | 1.947
303.15 K, x1 = 0.3001 | 1028.95 | 2.113
303.15 K, x1 = 0.4 | 1029.38 | 2.235
303.15 K, x1 = 0.4997 | 1029.57 | 2.349
303.15 K, x1 = 0.6 | 1029.29 | 2.41
303.15 K, x1 = 0.7002 | 1028.53 | 2.416
303.15 K, x1 = 0.7999 | 1027.37 | 2.378
303.15 K, x1 = 0.8997 | 1025.67 | 2.284
303.15 K, x1 = 1 | 1022.92 | 2.097
308.15 K, x1 = 0.0999 | 1022.66 | 1.646
308.15 K, x1 = 0.2 | 1023.5 | 1.786
308.15 K, x1 = 0.3001 | 1024.34 | 1.927
308.15 K, x1 = 0.4 | 1024.69 | 2.026
308.15 K, x1 = 0.4997 | 1024.79 | 2.116
308.15 K, x1 = 0.6 | 1024.38 | 2.16
308.15 K, x1 = 0.7002 | 1023.5 | 2.156
308.15 K, x1 = 0.7999 | 1022.2 | 2.115
308.15 K, x1 = 0.8997 | 1020.34 | 2.026
308.15 K, x1 = 1 | 1017.42 | 1.858
313.15 K, x1 = 0.0999 | 1018.16 | 1.525
313.15 K, x1 = 0.2 | 1018.95 | 1.646
313.15 K, x1 = 0.3001 | 1019.72 | 1.765
313.15 K, x1 = 0.4 | 1019.99 | 1.845
313.15 K, x1 = 0.4997 | 1020 | 1.918
313.15 K, x1 = 0.6 | 1019.48 | 1.948
313.15 K, x1 = 0.7002 | 1018.46 | 1.937
313.15 K, x1 = 0.7999 | 1017.01 | 1.896
313.15 K, x1 = 0.8997 | 1015 | 1.816
313.15 K, x1 = 1 | 1011.9 | 1.658
318.15 K, x1 = 0.0999 | 1013.66 | 1.417
318.15 K, x1 = 0.2 | 1014.4 | 1.523
318.15 K, x1 = 0.3001 | 1015.1 | 1.625
318.15 K, x1 = 0.4 | 1015.29 | 1.689
318.15 K, x1 = 0.4997 | 1015.19 | 1.748
318.15 K, x1 = 0.6 | 1014.55 | 1.768
318.15 K, x1 = 0.7002 | 1013.4 | 1.751
318.15 K, x1 = 0.7999 | 1011.81 | 1.712
318.15 K, x1 = 0.8997 | 1009.64 | 1.636
318.15 K, x1 = 1 | 1006.36 | 1.491
323.15 K, x1 = 0.0999 | 1009.17 | 1.329
323.15 K, x1 = 0.2 | 1009.85 | 1.422
323.15 K, x1 = 0.3001 | 1010.48 | 1.512
323.15 K, x1 = 0.4 | 1010.58 | 1.563
323.15 K, x1 = 0.4997 | 1010.38 | 1.615
323.15 K, x1 = 0.6 | 1009.62 | 1.62
323.15 K, x1 = 0.7002 | 1008.34 | 1.602
323.15 K, x1 = 0.7999 | 1006.6 | 1.568
323.15 K, x1 = 0.8997 | 1004.28 | 1.492
323.15 K, x1 = 1 | 1000.79 | 1.349

CCOC(=O)C(C)O (stereo not drawn) [DL-ethyl lactate] + Cc1ccccc1
Conditions | mass density [kg/m3] | viscosity [mPa·s]
288.15 K, x1 = 0.1001 | 887.622 | 0.6897
288.15 K, x1 = 0.2001 | 904.719 | 0.7894
288.15 K, x1 = 0.3 | 921.906 | 0.9136
288.15 K, x1 = 0.4 | 939.168 | 1.06
288.15 K, x1 = 0.4998 | 956.144 | 1.258
288.15 K, x1 = 0.6001 | 973.156 | 1.493
288.15 K, x1 = 0.7 | 990.077 | 1.795
288.15 K, x1 = 0.7999 | 1006.73 | 2.174
288.15 K, x1 = 0.9 | 1023.31 | 2.637
288.15 K, x1 = 1 | 1039.28 | 3.207
293.15 K, x1 = 0.1001 | 882.811 | 0.6502
293.15 K, x1 = 0.2001 | 899.769 | 0.7404
293.15 K, x1 = 0.3 | 916.845 | 0.8468
293.15 K, x1 = 0.4 | 934.015 | 0.9765
293.15 K, x1 = 0.4998 | 950.923 | 1.141
293.15 K, x1 = 0.6001 | 967.906 | 1.344
293.15 K, x1 = 0.7 | 984.738 | 1.597
293.15 K, x1 = 0.7999 | 1001.36 | 1.911
293.15 K, x1 = 0.9 | 1017.91 | 2.29
293.15 K, x1 = 1 | 1033.84 | 2.75
298.15 K, x1 = 0.1001 | 877.99 | 0.6148
298.15 K, x1 = 0.2001 | 894.808 | 0.6896
298.15 K, x1 = 0.3 | 911.77 | 0.7865
298.15 K, x1 = 0.4 | 928.847 | 0.9011
298.15 K, x1 = 0.4998 | 945.727 | 1.043
298.15 K, x1 = 0.6001 | 962.633 | 1.22
298.15 K, x1 = 0.7 | 979.381 | 1.434
298.15 K, x1 = 0.7999 | 995.963 | 1.695
298.15 K, x1 = 0.9 | 1012.47 | 2.01
298.15 K, x1 = 1 | 1028.39 | 2.39
303.15 K, x1 = 0.1001 | 873.16 | 0.5814
303.15 K, x1 = 0.2001 | 889.833 | 0.6488
303.15 K, x1 = 0.3 | 906.687 | 0.7345
303.15 K, x1 = 0.4 | 923.666 | 0.8343
303.15 K, x1 = 0.4998 | 940.433 | 0.9586
303.15 K, x1 = 0.6001 | 957.336 | 1.112
303.15 K, x1 = 0.7 | 974.002 | 1.295
303.15 K, x1 = 0.7999 | 990.547 | 1.517
303.15 K, x1 = 0.9 | 1007.14 | 1.782
303.15 K, x1 = 1 | 1022.92 | 2.097
308.15 K, x1 = 0.1001 | 868.317 | 0.5513
308.15 K, x1 = 0.2001 | 884.843 | 0.6122
308.15 K, x1 = 0.3 | 901.583 | 0.6876
308.15 K, x1 = 0.4 | 918.463 | 0.7756
308.15 K, x1 = 0.4998 | 935.187 | 0.8842
308.15 K, x1 = 0.6001 | 952.011 | 1.017
308.15 K, x1 = 0.7 | 968.604 | 1.176
308.15 K, x1 = 0.7999 | 985.109 | 1.367
308.15 K, x1 = 0.9 | 1001.53 | 1.592
308.15 K, x1 = 1 | 1017.42 | 1.858
313.15 K, x1 = 0.1001 | 863.457 | 0.5218
313.15 K, x1 = 0.2001 | 879.836 | 0.5761
313.15 K, x1 = 0.3 | 896.465 | 0.6439
313.15 K, x1 = 0.4 | 913.246 | 0.7225
313.15 K, x1 = 0.4998 | 929.878 | 0.8182
313.15 K, x1 = 0.6001 | 946.664 | 0.935
313.15 K, x1 = 0.7 | 963.183 | 1.073
313.15 K, x1 = 0.7999 | 979.648 | 1.239
313.15 K, x1 = 0.9 | 996.054 | 1.432
313.15 K, x1 = 1 | 1011.9 | 1.658
318.15 K, x1 = 0.1001 | 858.58 | 0.4943
318.15 K, x1 = 0.2001 | 874.813 | 0.5433
318.15 K, x1 = 0.3 | 891.323 | 0.6042
318.15 K, x1 = 0.4 | 908.008 | 0.6744
318.15 K, x1 = 0.4998 | 924.579 | 0.7599
318.15 K, x1 = 0.6001 | 941.286 | 0.8633
318.15 K, x1 = 0.7 | 957.74 | 0.985
318.15 K, x1 = 0.7999 | 974.163 | 1.13
318.15 K, x1 = 0.9 | 990.49 | 1.296
318.15 K, x1 = 1 | 1006.36 | 1.491
323.15 K, x1 = 0.1001 | 853.686 | 0.4712
323.15 K, x1 = 0.2001 | 869.771 | 0.5163
323.15 K, x1 = 0.3 | 886.165 | 0.5718
323.15 K, x1 = 0.4 | 902.749 | 0.6343
323.15 K, x1 = 0.4998 | 919.234 | 0.7115
323.15 K, x1 = 0.6001 | 935.886 | 0.8038
323.15 K, x1 = 0.7 | 952.282 | 0.912
323.15 K, x1 = 0.7999 | 968.653 | 1.038
323.15 K, x1 = 0.9 | 984.965 | 1.186
323.15 K, x1 = 1 | 1000.79 | 1.349
